Patent US9073821B2, “Hydroxamic acid derivative” (priority 2010, dated 2015)
Values after ≈ are worked out from the molar mass of the structure shown. Like-named read-outs stand apart in the source and are kept apart here.

Columns and labels:
[1] = target: Pseudomonas aeruginosa LpxC enzyme (Pseudomonas aeruginosa (strain ATCC 15692 / DSM 22644 / CIP 104116 / JCM 14847 / LMG 12228 / 1C / PRS 101 / PAO1), UniProt P47205); test: biochemical; format: biochemical
E. coli LpxC enzyme = E. coli LpxC enzyme (Escherichia coli (strain K12), UniProt P0A725); test: Inhibitory activity on E. coli LpxC enzyme (fluorescamine assay); format: biochemical; conditions: Table 4
Sequence of E. coli LpxC enzyme (P0A725 whole entry): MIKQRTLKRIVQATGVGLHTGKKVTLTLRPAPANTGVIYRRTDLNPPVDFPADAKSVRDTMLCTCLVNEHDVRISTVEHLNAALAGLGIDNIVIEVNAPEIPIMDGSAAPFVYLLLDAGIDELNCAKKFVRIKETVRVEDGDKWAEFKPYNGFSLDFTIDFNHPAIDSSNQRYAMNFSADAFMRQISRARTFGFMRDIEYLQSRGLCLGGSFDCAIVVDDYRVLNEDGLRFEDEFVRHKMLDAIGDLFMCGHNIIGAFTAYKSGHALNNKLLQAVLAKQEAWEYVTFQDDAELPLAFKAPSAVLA
Method: Test 2: Evaluation of the Inhibitory Activity on E. coli LpxC Enzyme
An inhibition curve was constructed for each test compound by performing the aforementioned reaction at varying concentrations of the test compound. From this inhibition curve, the concentration of the test compound at which the formation of the reaction product was suppressed by 50% was determined as the IC50 of the test compound, which was an index for the inhibitory activity on E. coli LpxC enzyme.

E. coli strain ATCC25922 = test: Antimicrobial activity, MIC by broth microdilution; format: cell-based; conditions: Escherichia coli, Table 4, 35° C., 18 hours, read-out: E. coli ATCC 25922 strain MIC
[2] = system: Klebsiella pneumoniae strain ATCC13883; test: Antimicrobial activity, MIC by broth microdilution; format: cell-based; conditions: Table 4, 35° C., 18 hours, read-out: Klebsiella pneumoniae ATCC 13883 strain MIC
[3] = system: Pseudomonas aeruginosa strain TS88 (clinical isolate); test: Antimicrobial activity, MIC by broth microdilution; format: cell-based; conditions: Table 4, 35° C., 18 hours, read-out: Pseudomonas aeruginosa TS88 strain MIC

Compound: CNC(=O)[C@@](C)(C(=O)NO)N(C)C(=O)c1ccc(CCc2ccc(CN3CCOCC3)cc2)cc1 [Compound 425, (2S)-N-hydroxy-N′,2-dimethyl-2-{methyl[(4-{2-[4-(morpholin-4-ylmethyl)phenyl]ethyl}phenyl)carbonyl]amino}propanediamide]
- IC50 ([1]; Table 4, read-out: Pseudomonas aeruginosa LpxC IC50): 5.1 nM
- IC50 ([1]; inhibitory activity on Pseudomonas aeruginosa LpxC enzyme, class symbols A/B/C, read-out: Enzyme inhibitory activity): < 10 nM
- IC50 (E. coli LpxC enzyme): 121 nM
- MIC (E. coli strain ATCC25922): 2 µg/mL (≈ 4.14 µM)
- MIC [2]: 8 µg/mL (≈ 16.6 µM)
- MIC [3]: 8 µg/mL (≈ 16.6 µM)
